Test results published in publication PMC5218480 (PLoS ONE, 2017).

System: MV-4-11 cells
Experiment: Gene expression microarray analysis (Affymetrix PrimeView) and GSEA
Type: cell-based, human
Design: RFU PODN (11730768_x_at) / Fold change /veh PODN (11730768_x_at) / RFU LINC00158 (11744669_a_at) / Fold change /veh LINC00158 (11744669_a_at) / RFU DUSP10 (11751237_a_at) / Fold change /veh DUSP10 (11751237_a_at) / RFU ID3 (11757404_x_at) / Fold change /veh ID3 (11757404_x_at) / RFU PLEKHG5 (11737974_s_at) / Fold change /veh PLEKHG5 (11737974_s_at) / RFU LRRC4B (11730491_at) / Fold change /veh LRRC4B (11730491_at) / RFU GIMAP4 (11747438_a_at) / Fold change /veh GIMAP4 (11747438_a_at) / RFU KRT8 (11758183_x_at) / Fold change /veh KRT8 (11758183_x_at) / RFU CNN1 (11734310_a_at) / Fold change /veh CNN1 (11734310_a_at) / RFU VPS37D (11726825_at) / Fold change /veh VPS37D (11726825_at) / RFU C10orf10 (11716522_x_at) / Fold change /veh C10orf10 (11716522_x_at) / RFU KIR2DL2 /// KIR2DL4 /// KIR2DL5A /// KIR2DL5B /// KIR2DS1 /// KIR2DS2 /// KIR2DS3 /// KIR2DS4 /// KIR3DL3 /// KIR3DL3 /// KIR3DS1 (11738374_at) / Fold change /veh KIR2DL2 /// KIR2DL4 /// KIR2DL5A /// KIR2DL5B /// KIR2DS1 /// KIR2DS2 /// KIR2DS3 /// KIR2DS4 /// KIR3DL3 /// KIR3DL3 /// KIR3DS1 (11738374_at) / RFU C1QL1 (11718748_at) / Fold change /veh C1QL1 (11718748_at) / RFU TMPRSS4 (11747572_a_at) / Fold change /veh TMPRSS4 (11747572_a_at) / RFU HAMP (11756126_x_at) / Fold change /veh HAMP (11756126_x_at) / RFU RNFT2 (11725882_a_at) / Fold change /veh RNFT2 (11725882_a_at) / RFU NR4A2 (11747474_a_at) / Fold change /veh NR4A2 (11747474_a_at) / RFU ABCC12 (11746883_a_at) / Fold change /veh ABCC12 (11746883_a_at) / RFU TMEM136 (11760407_x_at) / Fold change /veh TMEM136 (11760407_x_at) / RFU CLDN22 /// WWC2 (11732394_at) / Fold change /veh CLDN22 /// WWC2 (11732394_at) / RFU HLA-DPB1 (11760878_x_at) / Fold change /veh HLA-DPB1 (11760878_x_at) / RFU SPINT1 (11716480_a_at) / Fold change /veh SPINT1 (11716480_a_at) / RFU GAP43 (11754022_s_at) / Fold change /veh GAP43 (11754022_s_at) / RFU A4GNT (11735810_at) / Fold change /veh A4GNT (11735810_at) / RFU PRB3 (11715151_x_at) / Fold change /veh PRB3 (11715151_x_at) / RFU TUBB4B (11761932_at) / Fold change /veh TUBB4B (11761932_at) / RFU CAPN14 (11732068_a_at) / Fold change /veh CAPN14 (11732068_a_at) / RFU TMCC2 (11721928_a_at) / Fold change /veh TMCC2 (11721928_a_at) / RFU IRGQ (11745062_a_at) / Fold change /veh IRGQ (11745062_a_at) / RFU FAM174B (11720279_a_at) / Fold change /veh FAM174B (11720279_a_at) / RFU TMPRSS4 (11748680_a_at) / Fold change /veh TMPRSS4 (11748680_a_at) / RFU FAM212B (11763350_a_at) / Fold change /veh FAM212B (11763350_a_at) / RFU PLEKHG5 (11743358_a_at) / Fold change /veh PLEKHG5 (11743358_a_at) / RFU ZSCAN30 (11745921_a_at) / Fold change /veh ZSCAN30 (11745921_a_at) / RFU CMKLR1 (11741424_a_at) / Fold change /veh CMKLR1 (11741424_a_at) / RFU LOC101060620 /// MAPK8IP1 (11723275_at) / Fold change /veh LOC101060620 /// MAPK8IP1 (11723275_at) / RFU SPTSSB (11747773_x_at) / Fold change /veh SPTSSB (11747773_x_at) / RFU PRSS12 (11739890_at) / Fold change /veh PRSS12 (11739890_at) / RFU BIN1 (11741810_x_at) / Fold change /veh BIN1 (11741810_x_at) / RFU WNT11 (11732464_a_at) / Fold change /veh WNT11 (11732464_a_at) / RFU C10orf10 (11716521_a_at) / Fold change /veh C10orf10 (11716521_a_at) / RFU C5orf56 (11738089_at) / Fold change /veh C5orf56 (11738089_at) / RFU CYB561 (11721691_x_at) / Fold change /veh CYB561 (11721691_x_at) / RFU ANKRD19P (11752326_a_at) / Fold change /veh ANKRD19P (11752326_a_at) / RFU OR2T12 /// OR2T33 /// OR2T8 (11738714_s_at) / Fold change /veh OR2T12 /// OR2T33 /// OR2T8 (11738714_s_at) / RFU VCAN (11748164_a_at) / Fold change /veh VCAN (11748164_a_at) / RFU JSRP1 (11732532_at) / Fold change /veh JSRP1 (11732532_at) / RFU KRTAP10-11 (11738290_x_at) / Fold change /veh KRTAP10-11 (11738290_x_at) / RFU MYO3A (11730013_a_at) / Fold change /veh MYO3A (11730013_a_at) / RFU EBF3 (11725865_a_at) / Fold change /veh EBF3 (11725865_a_at) / RFU CAMK2N1 (11719241_x_at) / Fold change /veh CAMK2N1 (11719241_x_at) / RFU C5orf56 (11738088_a_at) / Fold change /veh C5orf56 (11738088_a_at) / RFU OLFML3 (11715873_a_at) / Fold change /veh OLFML3 (11715873_a_at) / RFU LOC100653217 /// NTM (11731650_a_at) / Fold change /veh LOC100653217 /// NTM (11731650_a_at) / RFU MAPK11 (11762145_a_at) / Fold change /veh MAPK11 (11762145_a_at) / RFU FIZ1 (11724087_x_at) / Fold change /veh FIZ1 (11724087_x_at) / RFU OASL (11726364_x_at) / Fold change /veh OASL (11726364_x_at) / RFU SOX15 (11748057_x_at) / Fold change /veh SOX15 (11748057_x_at) / RFU CD79A (11719716_a_at) / Fold change /veh CD79A (11719716_a_at) / RFU HIST1H1D (11736915_at) / Fold change /veh HIST1H1D (11736915_at) / RFU CASKIN2 (11723855_a_at) / Fold change /veh CASKIN2 (11723855_a_at) / RFU LOC730098 (11760151_x_at) / Fold change /veh LOC730098 (11760151_x_at) / RFU OR4N2 (11742367_at) / Fold change /veh OR4N2 (11742367_at) / RFU PRRT2 (11749266_a_at) / Fold change /veh PRRT2 (11749266_a_at) / RFU SNX32 (11753110_a_at) / Fold change /veh SNX32 (11753110_a_at) / RFU CDHR5 (11726645_a_at) / Fold change /veh CDHR5 (11726645_a_at) / RFU RCAN1 (11760418_a_at) / Fold change /veh RCAN1 (11760418_a_at) / RFU FAM167A (11723789_a_at) / Fold change /veh FAM167A (11723789_a_at) / RFU FAM26E (11764081_at) / Fold change /veh FAM26E (11764081_at) / RFU ISYNA1 (11749810_s_at) / Fold change /veh ISYNA1 (11749810_s_at) / RFU ACY1 (11761880_at) / Fold change /veh ACY1 (11761880_at) / RFU 11764098_at / Fold change /veh 11764098_at / RFU SAMD14 (11745864_x_at) / Fold change /veh SAMD14 (11745864_x_at) / RFU NPB (11741838_a_at) / Fold change /veh NPB (11741838_a_at) / RFU TMPRSS6 (11731388_a_at) / Fold change /veh TMPRSS6 (11731388_a_at) / RFU KRTAP10-2 (11738614_at) / Fold change /veh KRTAP10-2 (11738614_at) / RFU ARHGAP8 /// PRR5-ARHGAP8 (11727945_x_at) / Fold change /veh ARHGAP8 /// PRR5-ARHGAP8 (11727945_x_at) / RFU KRTAP5-7 /// NADSYN1 (11734609_at) / Fold change /veh KRTAP5-7 /// NADSYN1 (11734609_at) / RFU RASL12 (11751679_a_at) / Fold change /veh RASL12 (11751679_a_at) / RFU CDKN2B (11736163_a_at) / Fold change /veh CDKN2B (11736163_a_at) / RFU PRF1 (11729649_at) / Fold change /veh PRF1 (11729649_at) / RFU, ZNF638 /// ZNF638-IT1 / Fold change vs veh, ZNF638 /// ZNF638-IT1 / RFU, PANK3 / Fold change vs veh, PANK3 / RFU, SH3YL1 / Fold change vs veh, SH3YL1 / RFU, ZEB2 / Fold change vs veh, ZEB2 / RFU, NRIP1 / Fold change vs veh, NRIP1 / RFU, PTTG1IP / Fold change vs veh, PTTG1IP / RFU, CAPN2 / Fold change vs veh, CAPN2 / RFU, MED14 / Fold change vs veh, MED14 / RFU, SNORA58 / Fold change vs veh, SNORA58 / RFU, C1orf63 / Fold change vs veh, C1orf63 / RFU, LRRFIP1 / Fold change vs veh, LRRFIP1 / RFU, NDUFAF7 / Fold change vs veh, NDUFAF7 / RFU, SLC12A2 / Fold change vs veh, SLC12A2 / RFU, IBTK / Fold change vs veh, IBTK / RFU, ESF1 / Fold change vs veh, ESF1 / Fold change vs veh, TMEM50B / RFU, TAOK1 / Fold change vs veh, TAOK1 / RFU, ACBD3 / Fold change vs veh, ACBD3 / RFU, TMA16 / Fold change vs veh, TMA16 / RFU, RWDD3 / Fold change vs veh, RWDD3 / RFU, BCAT1 / Fold change vs veh, BCAT1 / RFU, EDEM3 / Fold change vs veh, EDEM3 / RFU, TMEM33 / Fold change vs veh, TMEM33 / RFU, WDR75 / Fold change vs veh, WDR75 / RFU, AHCTF1 / Fold change vs veh, AHCTF1 / RFU, TFRC / Fold change vs veh, TFRC / RFU, ZDHHC17 / Fold change vs veh, ZDHHC17 / RFU, NOM1 / Fold change vs veh, NOM1 / RFU, ARL8B / Fold change vs veh, ARL8B / RFU, ZBTB11 / Fold change vs veh, ZBTB11 / RFU, TAMM41 / Fold change vs veh, TAMM41 / RFU, KIAA1704 /// LOC100996395 / Fold change vs veh, KIAA1704 /// LOC100996395 / RFU, ING1 / Fold change vs veh, ING1 / RFU, TRMT61B / Fold change vs veh, TRMT61B / RFU, FUBP3 / Fold change vs veh, FUBP3 / RFU, TP53 / Fold change vs veh, TP53 / RFU, TNKS2 / Fold change vs veh, TNKS2 / RFU, ZFP14 / Fold change vs veh, ZFP14 / RFU, ACTR2 / Fold change vs veh, ACTR2 / RFU, PPP3R1 / Fold change vs veh, PPP3R1 / RFU, PIK3R1 / Fold change vs veh, PIK3R1 / RFU, HNRNPA1 / Fold change vs veh, HNRNPA1 / RFU, RNF170 / Fold change vs veh, RNF170 / RFU, ZNF28 / Fold change vs veh, ZNF28 / RFU, RNGTT / Fold change vs veh, RNGTT / RFU, OGT / Fold change vs veh, OGT / RFU, BRD1 / Fold change vs veh, BRD1 / RFU, MARS / Fold change vs veh, MARS / RFU, ZNF655 / Fold change vs veh, ZNF655 / RFU, FAHD1 / Fold change vs veh, FAHD1 / RFU, BDP1 / Fold change vs veh, BDP1 / RFU, LRRCC1 / Fold change vs veh, LRRCC1 / RFU, ARID1A / Fold change vs veh, ARID1A / RFU, ZNF146 / Fold change vs veh, ZNF146 / RFU, ZNF330 / Fold change vs veh, ZNF330 / RFU, GPN3 / Fold change vs veh, GPN3 / RFU, C9orf123 / Fold change vs veh, C9orf123 / RFU, N4BP2L2 / Fold change vs veh, N4BP2L2 / RFU, ARFIP1 / Fold change vs veh, ARFIP1 / RFU, FAM179B / Fold change vs veh, FAM179B / RFU, BCL10 / Fold change vs veh, BCL10 / RFU, UHRF1BP1L / Fold change vs veh, UHRF1BP1L / RFU, BET1 / Fold change vs veh, BET1 / RFU, CNOT2 / Fold change vs veh, CNOT2 / RFU, ZNF268 / Fold change vs veh, ZNF268 / Fold change vs veh, ZNF507 / RFU, DGCR2 / Fold change vs veh, DGCR2 / RFU, WDSUB1 / Fold change vs veh, WDSUB1 / Fold change vs veh, HSP90B1 /// MIR3652 / RFU, ADSS / Fold change vs veh, ADSS / RFU, GK / Fold change vs veh, GK / RFU, ZNF148 / Fold change vs veh, ZNF148 / RFU, TAF9 / Fold change vs veh, TAF9 / RFU, SLC1A5 / Fold change vs veh, SLC1A5 / RFU, SLMO2 / Fold change vs veh, SLMO2 / RFU, ABCC4 / Fold change vs veh, ABCC4 / RFU, LOC101060439 /// RAP1B / Fold change vs veh, LOC101060439 /// RAP1B / RFU, RFX7 / Fold change vs veh, RFX7 / RFU, GTPBP10 / Fold change vs veh, GTPBP10 / RFU, CNEP1R1 / Fold change vs veh, CNEP1R1 / RFU, BIVM-ERCC5 /// ERCC5 / Fold change vs veh, BIVM-ERCC5 /// ERCC5 / RFU, ILF3 / Fold change vs veh, ILF3 / RFU 11762660_at / Fold change /veh 11762660_at / RFU VCAN (11757783_s_at) / Fold change /veh VCAN (11757783_s_at) / RFU DDX43 (11728927_at) / Fold change /veh DDX43 (11728927_at) / RFU KRT8 (11758188_x_at) / Fold change /veh KRT8 (11758188_x_at) / RFU NKD1 (11759106_at) / Fold change /veh NKD1 (11759106_at) / RFU SRD5A1 (11742802_a_at) / Fold change /veh SRD5A1 (11742802_a_at) / RFU TPSAB1 /// TPSB2 (11721975_s_at) / Fold change /veh TPSAB1 /// TPSB2 (11721975_s_at) / RFU GSTM3 (11746129_a_at) / Fold change /veh GSTM3 (11746129_a_at) / RFU IL23R (11737362_x_at) / Fold change /veh IL23R (11737362_x_at) / RFU TMEM51 (11727254_a_at) / Fold change /veh TMEM51 (11727254_a_at) / RFU PIWIL2 (11732686_x_at) / Fold change /veh PIWIL2 (11732686_x_at) / RFU ORM1 (11744905_x_at) / Fold change /veh ORM1 (11744905_x_at) / RFU CCDC152 (11743942_at) / Fold change /veh CCDC152 (11743942_at) / RFU ECM1 (11717891_a_at) / Fold change /veh ECM1 (11717891_a_at) / RFU IL23R (11748794_a_at) / Fold change /veh IL23R (11748794_a_at) / RFU TNFAIP8L3 (11732012_x_at) / Fold change /veh TNFAIP8L3 (11732012_x_at) / RFU MBOAT4 (11741988_at) / Fold change /veh MBOAT4 (11741988_at) / RFU 11764193_at / Fold change /veh 11764193_at / RFU TMEM53 (11763286_at) / Fold change /veh TMEM53 (11763286_at) / RFU MAGEB2 (11727129_at) / Fold change /veh MAGEB2 (11727129_at) / RFU TMEM200A (11744735_a_at) / Fold change /veh TMEM200A (11744735_a_at) / RFU CCDC152 (11751479_a_at) / Fold change /veh CCDC152 (11751479_a_at) / RFU FAM211A (11726209_a_at) / Fold change /veh FAM211A (11726209_a_at) / RFU RGS16 (11746705_a_at) / Fold change /veh RGS16 (11746705_a_at) / RFU VCAN (11755009_s_at) / Fold change /veh VCAN (11755009_s_at) / RFU RHOB (11743442_s_at) / Fold change /veh RHOB (11743442_s_at) / RFU RGS16 (11720943_a_at) / Fold change /veh RGS16 (11720943_a_at) / RFU RGS16 (11720944_at) / Fold change /veh RGS16 (11720944_at) / RFU, VPS4B / Fold change vs veh, VPS4B / RFU, CREB1 / Fold change vs veh, CREB1 / RFU, DNAJC13 / Fold change vs veh, DNAJC13 / RFU, GNAQ / Fold change vs veh, GNAQ / RFU, CDK5R1 / Fold change vs veh, CDK5R1 / RFU, ZRANB3 / Fold change vs veh, ZRANB3 / RFU, CUL4A / Fold change vs veh, CUL4A / RFU, CCNY / Fold change vs veh, CCNY / RFU, UFL1 / Fold change vs veh, UFL1 / RFU, COG3 / Fold change vs veh, COG3 / RFU, DIAPH2 / Fold change vs veh, DIAPH2 / RFU, SKA2 / Fold change vs veh, SKA2 / RFU, AFF3 / Fold change vs veh, AFF3 / RFU, LMF1 / Fold change vs veh, LMF1 / RFU, IPO11 / Fold change vs veh, IPO11 / RFU, DFFB / Fold change vs veh, DFFB / RFU, FOXP1 / Fold change vs veh, FOXP1 / RFU, CARD8 / Fold change vs veh, CARD8 / RFU, STRN3 / Fold change vs veh, STRN3 / RFU, ADK / Fold change vs veh, ADK / RFU, RASSF2 / Fold change vs veh, RASSF2 / RFU, WIPF1 / Fold change vs veh, WIPF1 / RFU, LARP1B / Fold change vs veh, LARP1B / RFU, RASA1 / Fold change vs veh, RASA1 / RFU, RB1 / Fold change vs veh, RB1 / RFU, PPFIA1 / Fold change vs veh, PPFIA1 / RFU, MAT2A / Fold change vs veh, MAT2A / RFU, CCT5 / Fold change vs veh, CCT5 / RFU, WDR92 / Fold change vs veh, WDR92 / RFU, CUX1 / Fold change vs veh, CUX1 / RFU, TTC7A / Fold change vs veh, TTC7A / RFU, TMEM135 / Fold change vs veh, TMEM135 / RFU, DEPTOR / Fold change vs veh, DEPTOR / RFU, CPM / Fold change vs veh, CPM / RFU, DNAJB6 / Fold change vs veh, DNAJB6 / RFU, CACNA2D3 / Fold change vs veh, CACNA2D3 / RFU, DTX4 / Fold change vs veh, DTX4 / RFU, TFCP2 / Fold change vs veh, TFCP2 / RFU, GMCL1 /// GMCL1P1 / Fold change vs veh, GMCL1 /// GMCL1P1 / RFU, AEBP2 / Fold change vs veh, AEBP2 / RFU, SNHG1 /// SNORD22 /// SNORD25 /// SNORD26 /// SNORD27 /// SNORD28 /// SNORD29 /// SNORD31 / Fold change vs veh, SNHG1 /// SNORD22 /// SNORD25 /// SNORD26 /// SNORD27 /// SNORD28 /// SNORD29 /// SNORD31 / Fold change (Aza/veh), C12orf56 (ProbeSet 11735607_a_at) / Fold change (ACY-1035/veh), C12orf56 (ProbeSet 11735607_a_at) / Fold change (Aza/veh), FGFR1OP (ProbeSet 11751329_s_at) / Fold change (ACY-1035/veh), FGFR1OP (ProbeSet 11751329_s_at) / Fold change (Aza/veh), VPS36 (ProbeSet 11739960_a_at) / Fold change (ACY-1035/veh), VPS36 (ProbeSet 11739960_a_at) / RFU SYPL1 (11715823_x_at) / Fold change /veh SYPL1 (11715823_x_at) / RFU IGFBP7 (11715501_s_at) / Fold change /veh IGFBP7 (11715501_s_at) / RFU REEP3 (11722064_at) / Fold change /veh REEP3 (11722064_at) / RFU IGLL1 (11728026_x_at) / Fold change /veh IGLL1 (11728026_x_at): dose or concentration left out as unconfirmed
Details: MV-4-11 cells, 48 hours

`Nc1ccc(-c2cccs2)cc1NC(=O)c1ccc2c(c1)cc(C1CC1)n2CCN1CCOCC1` [ACY-1035] was tested, and the “Fold change /veh FIZ1 (11724087_x_at)” value was 1.06.
